Laboratory results as given in patent publication US20230339970A1, “CASEIN KINASE 1 DELTA MODULATORS” (priority 2020, published 2023).

Tests used:
[1] = target: T1, human recombinant GST cleaved CSNK1D (Homo sapiens, UniProt P48730); assay: Purified Enzyme Assay (ADP-Glo CSNK1D Kinase Assay); type: biochemical; details: 2 nM CSNK1D; peptide substrate 150 μM; ATP 20 μM; 45 minutes at room temperature
T1 construct: GST (cleaved yes); purchased University of Dundee clone DU 19064
Protocol: In this assay, CSNK1D phosphorylates a substrate peptide PLSRTL-pS-VASLPGL in the presence of ATP. […] This assay monitors CSNK1D kinase activity by measuring the amount of ADP produced in the assay.
The substrate mix is added to each well of a low volume, 384-well, white opaque plate. Test compounds were diluted in HBSS and added in a dose-response to the plate.
The total volume of each reaction is 5 ul (2 μL of substrate mix, 1 μL of diluted compounds, and 2 μL of human recombinant CSNK1D). The plates are incubated for 45 minutes at room temperature.
ADP was quantified using the ADP-Glo™ Kinase Assay. ADP-Glo Reagent (5 μL) was added to each well. After a 1 hour incubation at room temperature, Kinase Detection Reagent (10 μL) was added to each well and incubated for 30 minutes. […] The raw data from the Envision is used to calculate percent activity.

human CSNK1D = target: T2, human CSNK1D (Homo sapiens, UniProt P48730); assay: Whole Cell nBRET CSNK1D Binding Assay; details: living CHO cells stably expressing human CSNK1D tagged with nanoluciferase; NanoBret tracer 130 nM; 2 hours at 37 C
T2 construct: expressed in transfected cells
T2 sequence (P48730 whole entry): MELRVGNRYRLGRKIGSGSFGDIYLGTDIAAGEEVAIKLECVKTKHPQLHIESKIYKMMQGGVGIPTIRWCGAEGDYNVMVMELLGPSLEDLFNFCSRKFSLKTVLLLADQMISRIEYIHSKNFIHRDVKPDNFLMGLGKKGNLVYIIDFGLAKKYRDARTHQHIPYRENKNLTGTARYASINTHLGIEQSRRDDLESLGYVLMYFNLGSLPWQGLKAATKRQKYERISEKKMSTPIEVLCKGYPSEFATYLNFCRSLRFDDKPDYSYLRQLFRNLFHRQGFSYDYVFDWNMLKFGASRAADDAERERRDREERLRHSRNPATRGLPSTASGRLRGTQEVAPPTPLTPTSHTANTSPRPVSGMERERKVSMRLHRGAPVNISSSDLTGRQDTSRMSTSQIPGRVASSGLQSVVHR

T1 sequence (P48730 whole entry): as above

| SMILES | IC50 [1] | IC50 (human CSNK1D) |
| --- | --- | --- |
| Cc1nc2[nH]nc(Cl)c2c(-c2c(-c3ccc(F)cn3)nn3c2CCC3)c1F [Example 224, 3-Chloro-5-fluoro-4-(2-(5-fluoropyridin-2-yl)-5,6-dihydro-4H-pyrrolo[1,2-b]pyrazol-3-yl)-6-methyl-1H-pyrazolo[3,4-b]pyridine] | 4 nM | 5 nM |
| Fc1ccc(-c2nn3c(c2-c2ccnc4[nH]ncc24)C[C@H]2C[C@H]23)cc1 [Example 267, (4aR,5aR)-2-(4-Fluorophenyl)-3-(1H-pyrazolo[3,4-b]pyridin-4-yl)-4,4a,5,5a-tetrahydrocyclopropa[4,5]pyrrolo[1,2-b]pyrazole] | 6 nM | 131 nM |
| CC(=O)Nc1cc(-c2c(-c3ccc(F)cn3)nn3c2OCCC3)ccn1 [Example 183, N-(4-(2-(5-Fluoropyridin-2-yl)-6,7-dihydro-5H-pyrazolo[5,1-b][1,3]oxazin-3-yl)pyridin-2-yl)acetamide] | 7 nM | 220 nM |
| Cc1cc(-c2c(-c3ccc(F)cn3)nn3c2CNCC3)c2cn[nH]c2n1 [Example 2, 4-[2-(5-Fluoro-2-pyridyl)-4,5,6,7-tetrahydropyrazolo[1,5-a]pyrazin-3-yl]-6-methyl-1H-pyrazolo[3,4-b]pyridine] | 19 nM | 528 nM |
| Cc1cc(-c2c(-c3ccc(F)cn3)nn3c2CCC2CC23)c2cn[nH]c2n1 (racemic) [Example 57, (Racemic) 2-(5-Fluoropyridin-2-yl)-3-(6-methyl-1H-pyrazolo[3,4-b]pyridin-4-yl)-5,5a,6,6a-tetrahydro-4H-cyclopropa[e]pyrazolo[1,5-a]pyridine] | 6 nM | 57 nM |
| Fc1ccc(-c2nn3c(c2-c2ccnc4[nH]ccc24)CCCC3)cc1 [Example 33, 4-[2-(4-Fluorophenyl)-4,5,6,7-tetrahydropyrazolo[1,5-a]pyridin-3-yl]-1H-pyrrolo[2,3-b]pyridine] | 4 nM | 20 nM |
| Cn1cc2c(-c3c(-c4ccc(F)cn4)nn4c3COC(C)(C)C4)ccnc2n1 [Example 158, 2-(5-Fluoro-2-pyridyl)-6,6-dimethyl-3-(2-methylpyrazolo[3,4-b]pyridin-4-yl)-4,7-dihydropyrazolo[5,1-c][1,4]oxazine] | 6870 nM | > 10000 nM |
| C[C@]1(C(F)(F)F)Cn2nc(-c3ccc(F)cn3)c(-c3ccnc4[nH]ncc34)c2CO1 (single isomer, unassigned) [Example 178, (*R)-2-(5-Fluoropyridin-2-yl)-6-methyl-3-(1H-pyrazolo[3,4-b]pyridin-4-yl)-6-(trifluoromethyl)-6,7-dihydro-4H-pyrazolo[5,1-c][1,4]oxazine] | 77 nM | 1000 nM |
| [2H]C([2H])([2H])C1(C([2H])([2H])[2H])Cc2c(-c3cc(C)nc4[nH]ncc34)c(-c3ccc(F)cc3)nn2C1 [Example 242, 4-[2-(4-Fluorophenyl)-5,5-bis(methyl-d3)-4,6-dihydropyrrolo[1,2-b]pyrazol-3-yl]-6-methyl-1H-pyrazolo[3,4-b]pyridine] | 2 nM | 4 nM |
| Cc1nc(-c2c(-c3ccc(F)cc3)nn3c2CCC(F)(F)C3)c2cn[nH]c2n1 [Example 279, 4-[6,6-Difluoro-2-(4-fluorophenyl)-5,7-dihydro-4H-pyrazolo[1,5-a]pyridin-3-yl]-6-methyl-1H-pyrazolo[3,4-d]pyrimidine] | 5 nM | 74 nM |
| Cc1cc(-c2c(-c3ccc(F)cn3)nn3c2CO[C@@H](C)C3)c2cn[nH]c2n1 (single isomer, unassigned) [Example 88, (*S)-2-(5-Fluoro-2-pyridyl)-6-methyl-3-(6-methyl-1H-pyrazolo[3,4-b]pyridin-4-yl)-6,7-dihydro-4H-pyrazolo[5,1-c][1,4]oxazine] | 12 nM | 248 nM |
| C[C@H]1C[C@H](C)n2nc(-c3ccc(F)cn3)c(-c3ccnc4[nH]ncc34)c2O1 (single isomer, unassigned) [Example 205, (5*S,7*S)-2-(5-Fluoropyridin-2-yl)-5,7-dimethyl-3-(1H-pyrazolo[3,4-b]pyridin-4-yl)-6,7-dihydro-5H-pyrazolo[5,1-b][1,3]oxazine] | 5 nM | 171 nM |
| Fc1ccc(-c2nn3c(c2-c2ccnc4[nH]ncc24)OCCC3)nc1 [Example 186, 2-(5-Fluoropyridin-2-yl)-3-(1H-pyrazolo[3,4-b]pyridin-4-yl)-6,7-dihydro-5H-pyrazolo[5,1-b][1,3]oxazine] | 9 nM | 257 nM |
| Cc1cc(-c2c(-c3ccc(F)cn3)nn3c2CCC3)c2cn[nH]c2n1 [Example 8, 4-[2-(5-Fluoro-2-pyridyl)-5,6-dihydro-4H-pyrrolo[1,2-b]pyrazol-3-yl]-6-methyl-1H-pyrazolo[3,4-b]pyridine] | 4 nM | 87 nM |
| CC1COc2c(-c3ccnc4ccsc34)c(-c3ccc(F)cn3)nn2C1 (stereo not shown) [Example 195, 2-(5-Fluoropyridin-2-yl)-6-methyl-3-(thieno[3,2-b]pyridin-7-yl)-6,7-dihydro-5H-pyrazolo[5,1-b][1,3]oxazine] | 21 nM | 218 nM |
| Cc1cc(-c2c(-c3ccc(F)cc3)nn3c2OCCCC3)c2cn[nH]c2n1 [Example 217, 2-(4-Fluorophenyl)-3-(6-methyl-1H-pyrazolo[3,4-b]pyridin-4-yl)-5,6,7,8-tetrahydropyrazolo[5,1-b][1,3]oxazepane] | 2 nM | 25 nM |
| C[C@@H]1OCc2c(-c3ccnc4[nH]ncc34)c(-c3ccc(F)cc3)nn2[C@@H]1C (single isomer, unassigned) [Example 113, (6*S,7*R)-2-(4-Fluorophenyl)-6,7-dimethyl-3-(1H-pyrazolo[3,4-b]pyridin-4-yl)-6,7-dihydro-4H-pyrazolo[5,1-c][1,4]oxazine] | 10 nM | 113 nM |

Second part, the compound after the results:

| IC50 [1] | IC50 (human CSNK1D) | SMILES |
| --- | --- | --- |
| 539 nM | 120 nM | CC1(CF)CCc2c(-c3ccn4nccc4c3)c(-c3ccc(F)cn3)nn2C1 (single isomer, unassigned) [Example 290, (*S)-5-[6-(Fluoromethyl)-2-(5-fluoro-2-pyridyl)-6-methyl-5,7-dihydro-4H-pyrazolo[1,5-a]pyridin-3-yl]pyrazolo[1,5-a]pyridine] |
| 5 nM | 68 nM | CC1(CF)CCc2c(-c3ccnc(N)c3)c(-c3ccc(F)cn3)nn2C1 (single isomer, unassigned) [Example 287, (*R)-4-[6-(Fluoromethyl)-2-(5-fluoro-2-pyridyl)-6-methyl-5,7-dihydro-4H-pyrazolo[1,5-a]pyridin-3-yl]pyridin-2-amine] |
| 5 nM | 39 nM | Fc1ccc(-c2nn3c(c2-c2ccnc4[nH]ncc24)CC[C@@H]2C[C@@H]23)cc1 (stereo in doubt) [Example 340, (5a*R,6a*S)-2-(4-Fluorophenyl)-3-(1H-pyrazolo[3,4-b]pyridin-4-yl)-5,5a,6,6a-tetrahydro-4H-cyclopropa[e]pyrazolo[1,5-a]pyridine] |
| 44 nM | 1870 nM | CCn1ncc2cc(-c3c(-c4ccc(F)cn4)nn4c3OCCC4)cnc21 [Example 441, 3-(1-Ethyl-1H-pyrazolo[3,4-b]pyridin-5-yl)-2-(5-fluoropyridin-2-yl)-6,7-dihydro-5H-pyrazolo[5,1-b][1,3]oxazine] |
| 46 nM | 2480 nM | Cc1nc(-c2c(-c3ccc(F)cc3)nn3c2COC(C(F)(F)F)C3)c2cn[nH]c2n1 (single isomer, unassigned) [Example 377, (*S)-2-(4-Fluorophenyl)-3-(6-methyl-1H-pyrazolo[3,4-d]pyrimidin-4-yl)-6-(trifluoromethyl)-6,7-dihydro-4H-pyrazolo[5,1-c][1,4]oxazine] |
| 7 nM | 26 nM | CC1(C)Cn2nc(-c3ccc(F)cn3)c(-c3c(F)cnc4[nH]nc(Cl)c34)c2CO1 [Example 392, 3-(3-Chloro-5-fluoro-1H-pyrazolo[3,4-b]pyridin-4-yl)-2-(5-fluoropyridin-2-yl)-6,6-dimethyl-6,7-dihydro-4H-pyrazolo[5,1-c][1,4]oxazine] |
| 94 nM | 114 nM | CC1(CF)CCc2c(-c3ccn4nccc4c3)c(-c3ccc(F)cn3)nn2C1 (single isomer, unassigned) [Example 289, (*R)-5-[6-(Fluoromethyl)-2-(5-fluoro-2-pyridyl)-6-methyl-5,7-dihydro-4H-pyrazolo[1,5-a]pyridin-3-yl]pyrazolo[1,5-a]pyridine] |
| 1 nM | 8 nM | Fc1ccc(-c2nn3c(c2-c2ccnc4[nH]ncc24)CCC2(C3)CC2(F)F)nc1 (single isomer, unassigned) [Example 328, (*R)-2,2-Difluoro-2′-(5-fluoropyridin-2-yl)-3′-(1H-pyrazolo[3,4-b]pyridin-4-yl)-4′,5′-dihydro-7′H-spiro[cyclopropane-1,6′-pyrazolo[1,5-a]pyridine]] |
| 119 nM | 2300 nM | Cc1cnc(N)cc1-c1c(-c2ccc(F)cn2)nn2c1COC(C)(C)C2 [Example 378, 4-(2-(5-Fluoropyridin-2-yl)-6,6-dimethyl-6,7-dihydro-4H-pyrazolo[5,1-c][1,4]oxazin-3-yl)-5-methylpyridin-2-amine] |
